Test results published in patent publication US11559579B2 (HealthPartners Research & Education, priority 2014, dated 2023).

Key:
[1] = test system: Moderate Controlled Cortical Impact Injury Model (TBI); assay: Peg walk motor function test after controlled cortical impact; type: in vivo, Sprague Dawley rats; conditions: day 7 vs day 1 baseline and vs saline (vehicle) rats on day 7; intranasal, once a day; FIG. 2
Text: (§1) 2007 Mar. 15; 160(2):187-96. Onyszchuk, G., et al., J. Neurosci. Methods, 2007, 160(2): p.

[2] = test system: Moderate Controlled Cortical Impact Injury Model (TBI); assay: Morris water maze probe trial after controlled cortical impact; type: in vivo, Sprague Dawley rats; conditions: days 11-14 post-injury
Text: as §1

[3] = test system: M1 microglia (CD86); assay: M1 microglia marker CD86 expression post-injury; type: in vivo, Sprague Dawley rats; conditions: sacrifice on day 8 post-injury; vs saline rats; FIG. 4
Text: as §1
(§2) Microglia are the macrophages of the brain, with two dominant phenotypes: M1 and M2.
(§3) M1 microglia are classically activated pro-inflammatory cells. M1 microglia are useful in the initial healing process, but persistent activation results in neuronal cell death due to production of reactive oxygen species. M2 microglia are anti-inflammatory, pro-healing macrophages.

[4] = test system: M2 microglia (CD206); assay: M2 microglia marker CD206 expression post-injury; type: in vivo, Sprague Dawley rats; conditions: sacrifice on day 8 post-injury; vs intranasal saline rats; FIG. 3
Text: as §1, §2, §3

[5] = test system: Moderate Controlled Cortical Impact Injury Model (TBI); assay: Beam walk motor function test after controlled cortical impact; type: in vivo, Sprague Dawley rats; conditions: day 7 post-injury vs day 1 baseline and vs saline (vehicle) rats on day 7; intranasal, first dose 4 hours post-injury, then once a day; FIG. 1
Text: as §1

[6] = intranasal insulin; normal adults and patients with Alzheimer's disease; cited from earlier work
[7] = test system: neurons in the hippocampus; assay: NeuN immunohistochemistry of hippocampus post-injury; type: in vivo, Sprague Dawley rats; conditions: after sacrifice on day 8 post-injury; vs saline rats; FIG. 8a/8b
Text: as §1
FIG. 8a illustrates neuronal viability in the saline rat hippocampus.

insulin
peg walk motor function [1]: positive trend towards improved motor function
search strategy (Morris water maze probe trial) ([2]; insulin vs saline (vehicle) treated rats, FIG. 7): saline (vehicle) treated rats utilized significantly less targeted search methods (looping) than insulin rats
number of crosses of the target island region (Morris water maze probe trial) ([2]; vs saline (vehicle) treated rats, FIG. 6): significant increase in the number of crosses of the target island region
M1 microglia markers, expression of CD86 [3]: no significant increase in expression of M1 microglia markers
M2 microglia, expression of CD206 [4]: significant increase in M2 microglia
time to cross the beam (beam walk) [5]: significant decrease in time
memory [6]: improve memory
neuronal viability in the hippocampus (NeuN) [7]: improved neuronal viability in the hippocampus
